Here are results for 23 compounds from patent USRE43802E1, “α- and β-amino acid hydroxyethylamino sulfonamides useful as retroviral protease inhibitors” (G.D. Searle LLC, priority 1992, dated 2012).

Read-outs that look alike come from different tables or passages of the source.

One data set addresses T1, HIV protease (Human immunodeficiency virus type 1 group M subtype B, UniProt P04585).
T1 construct: HIV protease is diluted in the assay buffer to a final enzyme concentration of 12.3 nanomolar, based on a molecular weight of 10,780
As to the kind of experiment: HIV protease enzyme assay (fluorescence, substrate 2-Ile-Nle-Phe(p-NO2)-Gln-ArgNH2). In kind it is biochemical. Particulars: for IC50: HIV protease enzyme assay. As to the method:
The enzyme method is described below. […] The positive control is MVT-101 (Miller, M. et al, Science, 246, 1149 (1989)] The assay conditions are as follows:
Assay buffer: 20 mM sodium phosphate, pH 6.4 20% glycerol 1 mM EDTA 1 mM DTT 0.1% CHAPS
The above described substrate is dissolved in DMSO, then diluted 10 fold in assay buffer. Final substrate concentration in the assay is 80 μM.
The final concentration of DMSO is 14% and the final concentration of glycerol is 18%. The test compound is dissolved in DMSO and diluted in DMSO to 10× the test concentration; 10 μl of the enzyme preparation is added, the materials mixed and then the mixture is incubated at ambient temperature for 15 minutes. The enzyme reaction is initiated by the addition of 40 μl of substrate. The increase in fluorescence is monitored at 4 time points (0, 8, 16 and 24 minutes) at ambient temperature. Each assay is carried out in duplicate wells.

The test system of a further data set is HIV-1. The data set can be described thus: microbe, parasite or virus in culture. Particulars: Human immunodeficiency virus 1, CCRF-CEM, 168 h.
The test system of the next data set is CEM cells. The data set can be described thus: Intrinsic toxicity of test compound in uninfected CEM cells (MTT). The data set is classed as cell-based. Conditions: Table 21. The source says: Methods, 20, 309-321 (1988).
The mark [1] stands for this setting: Table 20, read-out: IC50 (uM) or % inhibition: IC50.
Setting [2] is: Table 19B, read-out: IC50 (uM) or % inhib: IC50.

Experimental for HIV-1: Assays were performed in 96-well tissue culture plates. CEM cells, a CD4^+ cell line, were grown in RPMI-1640 medium (Gibco) supplemented with a 10% fetal calf serum and were then treated with polybrene (2 μg/ml). An 80 μl volume of medium containing 1×10^4 cells was dispensed into each well of the tissue culture plate. To each well was added a 100 μl volume of test compound dissolved in tissue culture medium (or medium without test compound as a control) to achieve the desired final concentration and the cells were incubated at 37° C. for 1 hour. […] Likewise, the intrinsic toxicity of the test compound was determined by adding medium without virus to several wells containing test compound. […]
Following the addition of virus, cells were incubated at 37° C. in a humidified, 5% CO2 atmosphere for 7 days. […] The absorbance at 590 nm was determined for each sample using a Molecular Devices microplate reader. Absorbance values for each set of wells is compared to assess viral control infection, uninfected control cell response as well as test compound by cytotoxicity and antiviral efficacy.

`COc1ccc(S(=O)(=O)N(CC(C)C)C[C@@H](O)[C@H](Cc2ccccc2)NC(=O)O[C@H]2CCS(=O)(=O)C2)cc1`: the melting point – broadly, the temperature, or range, at which the solid turns liquid – came out at 69 °C.

`CNC(=O)C[C@H](NC(=O)c1ccc2ccccc2n1)C(=O)N[C@@H](Cc1ccccc1)[C@H](O)CN(CCC(C)C)S(=O)(=O)c1ccccc1` [Entry 7]: the IC50 (as a rule, the concentration at which inhibition is half-maximal) against HIV protease (IC50 (nM), Table 21) is 3 nM. Moreover, in the data set on HIV-1, the EC50 (in general, the concentration giving half of the maximal effect) is 25 nM.

For the compound `CC(C)CN(C[C@@H](O)[C@H](Cc1ccccc1)NC(=O)OCc1cccnc1)S(=O)(=O)c1ccccc1` [Example 16], the IC50 at HIV protease (Table 21, read-out: IC50) stood at 9 nM. Moreover, the “TD50 (nM)” value in the data set with CEM cells is given as 62,000 nM.

Turning to `COc1ccc(S(=O)(=O)N(CC(C)C)C[C@@H](O)[C@H](Cc2ccccc2)NC(=O)OCc2cccnc2)cc1` [Example 17], the 50% inhibitory concentration (IC50) on HIV protease (Table 21, read-out: IC50) is 4 nM. For the same compound, in the data set with CEM cells, the “TD50 (nM)” value was 59,000 nM.

With `COc1ccc(S(=O)(=O)N(CC(C)C)C[C@@H](O)[C@H](Cc2ccccc2)NC(=O)OCc2ccncc2)cc1` [Example 22], the IC50 at HIV protease (Table 21, read-out: IC50) worked out at 15 nM. Also, the “TD50 (nM)” value in the data set with CEM cells was 31,000 nM.

`COc1ccc(S(=O)(=O)N(CC(C)C)C[C@@H](O)[C@H](Cc2ccccc2)NC(=O)OCc2ccc[n+]([O-])c2)cc1` [Example 25]: the half-inhibitory concentration (IC50) at HIV protease (Table 21, read-out: IC50) turned out to be 60 nM. For the same compound, the “TD50 (nM)” value with CEM cells is on record as 167,000 nM.

As for `COc1ccc(S(=O)(=O)N(CC(C)C)C[C@@H](O)[C@H](Cc2ccccc2)NC(=O)OC(C)(C)C)cc1` [Example 27], at HIV protease (Table 21, read-out: IC50), the IC50 was determined as 5 nM. In the data set with CEM cells, the “TD50 (nM)” value is 300,000 nM.

With `COc1ccc(S(=O)(=O)N(CC(C)C)C[C@@H](O)[C@H](Cc2ccccc2)NC(=O)c2ccccc2)cc1` [Example 28], the “TD50 (nM)” value in the data set on CEM cells was 213,000 nM.

Turning to `COc1ccc(S(=O)(=O)N(CC(C)C)C[C@@H](O)[C@H](Cc2ccccc2)NC(=O)c2ccccc2C)cc1` [Example 29], the “TD50 (nM)” value with CEM cells is given as 196,000 nM.

As for `COc1ccc(S(=O)(=O)N(CC(C)C)C[C@@H](O)[C@H](Cc2ccccc2)NC(=O)c2ccccc2Cl)cc1` [Example 30], the “TD50 (nM)” value in the data set on CEM cells is on record as 154,000 nM.

Regarding `COc1ccc(S(=O)(=O)N(CC(C)C)C[C@@H](O)[C@H](Cc2ccccc2)NC(=O)c2c(C)cccc2C)cc1` [Example 32], the half-maximal inhibitory concentration (IC50) against HIV protease (IC50 (nM), Table 21) is 5 nM. In addition, the “TD50 (nM)” value with CEM cells is listed as 17,000 nM.

Turning to `COc1ccc(S(=O)(=O)N(CC(C)C)CC(O)C(Cc2ccccc2)NC(=O)C2CCCC2)cc1` (stereo not drawn) [Table 5A Entry 1], at HIV protease (setting [1]), the IC50 was determined as 40 nM.

As for `CCc1ccccc1C(=O)NC(Cc1ccccc1)C(O)CN(CC(C)C)S(=O)(=O)c1ccc(OC)cc1` (stereo not drawn) [Table 5A Entry 13], at HIV protease (setting [1]), the concentration for half-maximal inhibition (IC50) is 9.8 nM.

For `COc1ccc(S(=O)(=O)N(CC(C)C)CC(O)C(Cc2ccccc2)NC(=O)c2cccc(C)c2C)cc1` (stereo not drawn) [Table 5A Entry 16], the IC50 on HIV protease (setting [1]) worked out at 8 nM.

As to `COc1ccc(S(=O)(=O)N(CC(C)C)CC(O)C(Cc2ccccc2)NC(=O)c2ccccc2S(C)(=O)=O)cc1` (stereo not drawn) [Table 5A Entry 17], the “IC50 (uM) or % inhibition: % inhibition @ 10 μM” value at HIV protease (Table 20, @ 10 μM) is reported as 59% @ 10 μM.

Turning to `COc1ccc(S(=O)(=O)N(CC(C)C)CC(O)C(Cc2ccccc2)NC(=O)c2cccc(S(C)(=O)=O)c2)cc1` (stereo not drawn) [Table 5A Entry 18], the IC50 on HIV protease (setting [1]) stood at 130 nM.

Regarding `COc1ccc(S(=O)(=O)N(CC(C)C)CC(O)C(Cc2ccccc2)NC(=O)c2ccc(S(C)(=O)=O)cc2)cc1` (stereo not drawn) [Table 5A Entry 19], the IC50 at HIV protease (setting [1]) was found to be 92 nM.

For `COc1ccc(S(=O)(=O)N(CC(C)C)CC(O)C(Cc2ccccc2)NC(=O)c2ccccc2CS(C)(=O)=O)cc1` (stereo not drawn) [Table 5A Entry 20], the “IC50 (uM) or % inhibition: % inhibition @ 1 μM” value against HIV protease (Table 20) is reported as 85% @ 1 μM.

Take `COc1ccc(S(=O)(=O)N(CC(C)C)CC(O)C(Cc2ccccc2)NC(=O)c2ccc(CS(C)(=O)=O)cc2)cc1` (stereo not drawn) [Table 5A Entry 22]: the “IC50 (uM) or % inhibition: % inhibition @ 1 μM” value against HIV protease (Table 20) came to 63% @ 1 μM.

In the case of `CC(C)CN(CC(O)C(Cc1ccccc1)NC(=O)c1ccccc1)S(=O)(=O)c1ccccc1` (stereo not drawn) [Table 5A Entry 24], the IC50 on HIV protease (setting [1]) was 47 nM.

Consider `CC(C)CCN(CC(O)C(Cc1ccccc1)NC(=O)C(N)C(C)(C)C)S(=O)(=O)c1ccccc1` (stereo not drawn) [Table 11 Entry 1], for which the concentration for half-maximal inhibition (IC50) on HIV protease (setting [2]) turned out to be 130 nM.

Regarding `CC(C)CCN(CC(O)C(Cc1ccccc1)NC(=O)C(NC(=O)CBr)C(C)(C)C)S(=O)(=O)c1ccccc1` (stereo not drawn) [Table 12 Entry 10], the IC50 on HIV protease (setting [2]) turned out to be 3.3 nM.

Turning to `CSC(C)(C)[C@H](NC(=O)CN(C)C)C(=O)N[C@@H](Cc1ccccc1)[C@H](O)CN(CCC(C)C)S(=O)(=O)c1ccccc1` [Table 14 Entry 3], the IC50 at HIV protease (setting [2]) stood at 4.9 nM.
